Experimental data published in patent publication US20090030037A1, “Sustained Release Formulation and Dosing Schedules of Leukotriene Synthesis Inhibitor for Human Therapy” (deCODE Genetics ehf., priority 2005, published 2009).
Values joined by “and” are separate entries in the source; they are usually repeats but may differ in a detail not shown here. Equal values may be shown once.

Columns and labels:
[1] = test system: MPO release, human whole blood; experiment: In vitro MPO release in human whole blood after ionomycin stimulation; type: cell-based
Description: Neutrophils and other cells in human whole blood respond in vitro to activation by a calcium ionophore (e.g., ionomycin), with an increase in LTB4 production and with coupled release of MPO stimulated in part by LTB4 production in the assay. The effect of DG-031 on the capacity for production of LTB4 in vitro after ionomycin stimulation was evaluated at concentrations ranging from 0.1 μM up to 240 μM.
Blood samples collected from the clinical study described in Example 2 were evaluated assuming that the ex vivo response profile in clinical samples parallels the in vitro response over the entire concentration range, 250 mg TID dosing which maintains concentrations above 2-3 μg/ml (˜7 μM) should maintain a 30% or greater reduction of capacity for LTB4 production at all times. Peak concentrations of DG-031 with 250 mg TID dosing were about 10 μg/ml (28 μM) and should be associated with about 65% reduction of capacity for LTB4 production. The typical patient's pharmacodynamic response was expected to fluctuate between 30% and 65% reduction of capacity for LTB4 production over the course of a dosing interval.

MPO = experiment: Study DG-031-204: plasma MPO; type: in vivo, human; conditions: for Serum MPO (% change from baseline), mean response: after 4 weeks of DG-031 administration
Description: An additional single site, open label study was carried out to obtain biomarker and safety data on additional DG-031 doses (i.e., 1000 mg and 1500 mg). This study examined the safety, tolerability and dose-related effects of DG-031 on inflammatory biomarkers including: LTB4, hsCRP, and MPO. A total of 119 patients with a prior history of CAD and MI were randomized to receive either 1000 mg DG-031 (500 mg BID) or 1500 mg DG-031 (500 mg TID) daily for 4-6 weeks. Treatment with DG-031 in addition to the subject's standard care, medication, and treatment, was prescribed by the patient's cardiologist. A majority of the subjects received statin therapy before, during and after the study. Follow-up assessments were performed 2 weeks after the end of study drug administration.
The biomarkers were analyzed as described in Example 1. Statistical analysis of the data was carried out using a one-sample t-test on change from baseline with a two-sided nominal significance level of 0.050. Biomarker concentrations were log-transformed and a simple last observation carried forward (LOCF) scheme was used to impute missing observations.
Plasma MPO concentration was measured weekly. MPO measurements in ionomycin-stimulated whole blood were also measured in a subset of patients at 4 weeks.

sICAM = experiment: Study DG-031-201: ICAM (sICAM-1); type: in vivo, human; conditions: [0%,6%], p=0.03
Description: Patients who met the study eligibility criteria were enrolled and randomized into 3 different dose-level groups: (1) 64 patients on 250 mg/day therapy with DG-031 (250 mg q.d.), vs placebo; (2) 64 patients on 500 mg/day therapy with DG-031 (250 mg b.i.d.) vs placebo; and (3) 63 patients on 750 mg/day therapy with DG-031 (250 mg t.i.d.) vs placebo. […] All patients received 3 tablets per day. Treatment periods, 4 weeks in duration each, were separated by a 2-week washout period. The placebo tablets were identical in shape, color, form and taste to the active tablets except that they contained no active drug ingredients. Treatment with DG-031 or placebo was in addition to the subject's standard care, including all medications and treatment plan as prescribed by the subject's cardiologist prior to enrolment. A total of 191 subjects were enrolled, with 172 completing all 8 visits or 8 patients short of the target of 180 patients. […]
All data were analyzed according to a pre-established statistical analysis plan (SAP) and by intention-to-treat (ITT). […] The difference between DG-031 and placebo treatment was the primary outcome, assessed separately for each of the biomarkers. […]

O=C(O)[C@@H](c1ccc(OCc2ccc3ccccc3n2)cc1)C1CCCC1 [DG-031, (R)-(+)-alpha-cyclopentyl-4-(2-quinolinylmethoxy)-Benzeneacetic acid]
Concentration at which MPO release is maximally inhibited in vitro [1]: about 6 μM and ~2 μg/ml | Plasma MPO concentrations, change from baseline (MPO; 500 mg BID or TID, measured weekly): No changes from baseline | Serum MPO (% change from baseline), mean response (MPO; 1000 mg (500 mg BID)): +3% | Serum MPO (% change from baseline), mean response (MPO; 1500 mg (500 mg TID)): −12% | Effect on serum sICAM-1 (sICAM): reduced significantly
